Laboratory results: PMC4393083, “Antiviral Activity and Possible Mechanism of Action of Constituents Identified in Paeonia lactiflora Root toward Human Rhinoviruses” (PLoS ONE, 2015)

Columns and labels:
Format in all cases: cell-based, human
[1] = tested on: IL-6; assay: IL-6 mRNA expression, qRT-PCR in MRC5; settings: MRC5, 2 days after HRV-2 or HRV-4 infection; 100 μg/mL PA, 20 μg/mL PGG
Experimental: (§1) To evaluate the level of gene expression, real-time qRT-PCR with SYBR Green dye was carried out. HRV-2 or HRV-4 infected and noninfected cultures of MRC5 monolayers grown in 25 cm^2 cell culture flasks (Corning, NY) were treated with 100 μg/mL PA or 20 μg/mL PGG. After incubation at 37°C and 5% CO2 for 2 days, total RNA was extracted from the culture cells using the RNeasy Plus Mini Kit (Qiagen, Hilden, Germany) according to the manufacturer’s instructions. Contaminated genomic DNA was removed using RQ1 RNase-free DNase (Promega, Madison, WI). Complementary DNA (cDNA) was synthesized using 1 μg total RNA through a reverse transcription reaction using the SuperScript First-Strand Synthesis Kit (Invitrogen, Carlsbad, CA). […] The PCR conditions were as follows: 50°C for 2 min, 95°C for 10 min, and then 50 cycles of 95°C for 15 s and either 60°C [β2-microglobulin (B2M), interleukin (IL)-6, IL-8, LDLR, ICAM-1, HRV-2, and HRV-4] or 58°C (B2M and IL-1β) or 55°C [B2M, Toll-like receptor 3 (TLR3), tumor necrosis factor (TNF), and interferon beta (IFNβ)] for 30 s. mRNA expression level of target gene was normalized to mRNA expression level for the housekeeping gene B2M and analyzed by the 2^–ΔΔCT method using StepOne Software v2.1 and DataAssist Software (Applied Biosystems). […]

[2] = tested on: IFN-β; assay: IFN-β mRNA expression, qRT-PCR in MRC5; settings: MRC5, 2 days after HRV-2 or HRV-4 infection; 100 μg/mL PA, 20 μg/mL PGG
Experimental: as §1

[3] = tested on: IL-6; assay: IL-6 ELISA in MRC5 supernatants; settings: for IL-6 concentrations in infected cultures: HRV-2 or HRV-4 infected MRC5 supernatants, 2 days, 100 μg/mL PA, 20 μg/mL PGG
Experimental: The concentrations of IL-6, IL-8, and TNF in cell-free culture supernatants 2 days after treatment were measured using specific ELISA. OptEIA IL-6, IL-8, and TNF ELISA kits (BD Biosciences, San Diego, CA) were used for the assays. The sensitivities of these ELISA assays were 2.2, 0.8, and 2.0 pg/mL, respectively. The concentrations of IL-6, IL-8, and TNF in the test samples were determined from OD values using standard curve of each assay.

| Structure (SMILES) | effect on HRV-induced IL-6 mRNA expression [1] | effect on HRV-induced IFN-β mRNA expression [2] | IL-6 concentrations in infected cultures [3] | IL-6 concentrations in mock cultures vs mock cultures without treatment ([3]; noninfected MRC5 supernatants) |
| --- | --- | --- | --- | --- |
| COc1ccc(C(C)=O)c(O)c1 [PA, paeonol] | significantly reduced | meaningfully inhibited | reduced | higher |
| O=C(OC[C@H]1O[C@@H](OC(=O)c2cc(O)c(O)c(O)c2)[C@H](OC(=O)c2cc(O)c(O)c(O)c2)[C@@H](OC(=O)c2cc(O)c(O)c(O)c2)[C@@H]1OC(=O)c1cc(O)c(O)c(O)c1)c1cc(O)c(O)c(O)c1 [PGG, 1,2,3,4,6-penta-O-galloyl-β-D-glucopyranose] | significantly reduced | meaningfully inhibited | reduced | – |
